The text below walks through data of publication PMC10682951, “Structure-function and rational design of a spider toxin Ssp1a at human voltage-gated sodium channel subtypes” (Frontiers in Pharmacology, 2023).

Bridge positions count the residues as written; N and C are the ends. Peptide text beside a SMILES is read from it.

Holding throughout (format): cell-based
Experiment [1] concerns the target T1, hNaV1.2 (Homo sapiens, UniProt Q99250).
T1 construct: host or cells: HEK293
The experiment is described as follows: Automated whole-cell patch-clamp (QPatch 16X), hNaV1.2. The conditions noted are these: for IC50: HEK293 cells expressing hNaV1.2 + β1 subunit, QPatch 16X, holding −80 mV, step to 0 mV, peptide incubated 2 min, 0.1% BSA, mean, SEM and n (2-7). The procedure: (§1) Human embryonic kidney 293 (HEK293) cells stably expressing recombinant hNaV1.2, hNaV1.3 and hNaV1.7 and the β1 auxiliary subunit (Scottish Biomedical Drug Discovery, Glasgow, UK) were cultured in Minimal Essential medium (MEM) (Sigma-Aldrich, MO, United States) supplemented with 10% v/v FBS-New Zealand origin (Assay Matrix), 2 mM L-glutamine and selection antibiotics as per manufacturer’s recommendation. The HEK293 cells heterologously expressing mNaV1.7 and F813G-mNaV1.7 were generously provided by Prof Irina Vetter and were cultured in Minimal Essential medium (MEM) (Sigma-Aldrich, MO, United States) supplemented with 10% v/v FBS-New Zealand origin (Assay Matrix), 2 mM L-glutamine and hygromycin 100 μg/mL.
(§2) NaV channel currents from HEK293 cells stably expressing NaV subtypes and the β1 auxiliary subunit were recorded using an automated whole-cell patch clamp system QPatch 16X (Sophion Bioscience A/S, Ballerup, Denmark). As per the manufacturer’s guidelines, the cells were cultured for 48 h to achieve ∼80% confluency, detached using Detachin (Genlantis) and resuspended to 5 × 10^6 cells/mL in serum free media [CHO-cell SFM (Life Technologies), 25 mM HEPES and 100 U/mL penicillin/streptomycin]. The extracellular solution comprised (in mM) 1 CaCl2, 1 MgCl2, 5 HEPES, 3 KCl, 140 NaCl and 20 TEA-Cl, with the pH adjusted to 7.3 with NaOH. The intracellular solution comprised (in mM) 140 CsF, 1 EGTA, 5 CsOH, 10 HEPES and 10 NaCl, with the pH adjusted to 7.3 with CsOH. The osmolarity of both solutions were adjusted to 320 mOsm with sucrose. Compounds were prepared in extracellular solution containing 0.1% bovine serum albumin (Sigma-Aldrich). To obtain the dose-response curves, cells were maintained at a holding potential −80 mV and Na^+ currents were elicited by […] voltage steps to 0 mV from a −120 mV conditioning pulse applied for […]. Increasing concentrations of the peptide were incubated with the cells at the holding potential for 2 min before the voltage protocol was applied.
(§3) The experimental data were analysed using QPatch Assay software v5.6.4 and GraphPad Prism 7.0 using a four-parameter Hill equation [Y = Bottom + (Top—Bottom)/(1 + 10^(Log IC50—X)* Hillslope)] to fit concentration response curves by non-linear regression analysis and Student’s t-test. Data are presented as means ± standard error of mean (SEM) with number of independent experiments stated and p < 0.05 is considered statistically significant. Statistically insignificant shift in the activity is denoted by “little” while small but statistically significant shift in the activity is denoted by “slight” throughout the manuscript.
(In general: The patch-clamp technique gives a direct electrical read-out from membranes.)

In experiment [2] the target is T2, hNaV1.3 (Homo sapiens, UniProt Q9NY46).
T2 construct: host or cells: HEK293
T2 sequence (Q9NY46 whole entry): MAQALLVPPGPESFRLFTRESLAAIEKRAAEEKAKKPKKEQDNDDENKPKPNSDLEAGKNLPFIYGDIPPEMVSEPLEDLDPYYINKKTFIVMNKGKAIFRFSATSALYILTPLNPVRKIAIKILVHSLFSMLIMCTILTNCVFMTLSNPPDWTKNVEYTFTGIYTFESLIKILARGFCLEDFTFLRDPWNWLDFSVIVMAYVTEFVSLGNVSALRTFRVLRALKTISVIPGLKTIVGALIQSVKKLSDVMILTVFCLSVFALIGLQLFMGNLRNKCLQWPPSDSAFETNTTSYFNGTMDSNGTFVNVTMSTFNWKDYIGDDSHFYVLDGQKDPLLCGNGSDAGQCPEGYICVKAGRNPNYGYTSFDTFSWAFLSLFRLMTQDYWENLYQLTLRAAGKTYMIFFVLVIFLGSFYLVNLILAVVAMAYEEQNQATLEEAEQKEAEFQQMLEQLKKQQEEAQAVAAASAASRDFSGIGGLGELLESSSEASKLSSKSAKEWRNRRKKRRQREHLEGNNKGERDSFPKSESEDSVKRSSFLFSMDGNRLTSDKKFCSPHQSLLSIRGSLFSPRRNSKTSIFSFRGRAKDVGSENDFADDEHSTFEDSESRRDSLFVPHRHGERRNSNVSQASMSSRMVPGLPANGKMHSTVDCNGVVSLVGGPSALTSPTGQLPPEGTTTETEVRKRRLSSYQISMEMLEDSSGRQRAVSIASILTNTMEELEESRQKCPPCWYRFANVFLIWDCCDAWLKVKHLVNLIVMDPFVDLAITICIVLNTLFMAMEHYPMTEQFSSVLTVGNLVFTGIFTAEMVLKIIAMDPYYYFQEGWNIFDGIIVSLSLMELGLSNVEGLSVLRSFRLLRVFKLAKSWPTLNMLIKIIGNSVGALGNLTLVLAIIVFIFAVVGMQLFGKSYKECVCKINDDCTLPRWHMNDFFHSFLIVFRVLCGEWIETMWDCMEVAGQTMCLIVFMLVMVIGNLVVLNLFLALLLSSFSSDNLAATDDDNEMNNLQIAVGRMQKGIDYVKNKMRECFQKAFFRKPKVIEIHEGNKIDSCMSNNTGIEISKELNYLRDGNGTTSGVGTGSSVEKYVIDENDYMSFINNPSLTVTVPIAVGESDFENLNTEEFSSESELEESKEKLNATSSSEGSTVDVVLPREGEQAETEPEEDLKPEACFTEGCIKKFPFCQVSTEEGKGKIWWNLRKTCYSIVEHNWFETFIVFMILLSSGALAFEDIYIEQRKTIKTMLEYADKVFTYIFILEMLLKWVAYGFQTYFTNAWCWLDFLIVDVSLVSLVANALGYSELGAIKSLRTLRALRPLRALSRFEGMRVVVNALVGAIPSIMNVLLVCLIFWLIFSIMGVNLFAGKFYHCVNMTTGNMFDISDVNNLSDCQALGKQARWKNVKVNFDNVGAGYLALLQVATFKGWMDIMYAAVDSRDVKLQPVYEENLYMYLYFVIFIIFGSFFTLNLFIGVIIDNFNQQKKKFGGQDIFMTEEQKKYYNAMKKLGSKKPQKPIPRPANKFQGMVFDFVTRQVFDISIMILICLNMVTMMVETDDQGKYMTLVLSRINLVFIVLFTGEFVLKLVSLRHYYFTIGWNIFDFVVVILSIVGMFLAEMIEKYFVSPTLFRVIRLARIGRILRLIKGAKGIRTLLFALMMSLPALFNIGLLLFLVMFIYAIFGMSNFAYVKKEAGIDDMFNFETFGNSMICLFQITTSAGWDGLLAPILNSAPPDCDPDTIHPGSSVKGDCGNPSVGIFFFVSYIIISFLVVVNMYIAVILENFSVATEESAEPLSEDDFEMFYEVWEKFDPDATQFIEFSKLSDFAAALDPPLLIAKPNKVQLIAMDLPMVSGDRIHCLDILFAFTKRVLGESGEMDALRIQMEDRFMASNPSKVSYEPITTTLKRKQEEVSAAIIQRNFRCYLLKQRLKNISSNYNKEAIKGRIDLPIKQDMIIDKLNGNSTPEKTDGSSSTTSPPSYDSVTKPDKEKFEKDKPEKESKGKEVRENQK
T2 sequence (Q07699 19-218, further chain): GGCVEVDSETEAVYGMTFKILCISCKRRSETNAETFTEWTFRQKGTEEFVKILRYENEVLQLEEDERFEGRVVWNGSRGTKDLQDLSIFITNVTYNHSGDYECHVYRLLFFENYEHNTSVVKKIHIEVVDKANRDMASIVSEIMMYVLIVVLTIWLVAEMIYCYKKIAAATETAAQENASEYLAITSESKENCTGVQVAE
As to the kind of experiment: Automated whole-cell patch-clamp (QPatch 16X), hNaV1.3. The conditions noted are these: HEK293 cells expressing hNaV1.3 + β1 subunit; QPatch 16X; holding −80 mV, step to 0 mV; peptide incubated 2 min; 0.1% BSA; mean, SEM and n (3-12). The procedure: as §1, §2, §3

In experiment [3] the target is T3, hNaV1.7 (Homo sapiens, UniProt Q15858).
T3 construct: host or cells: HEK293
As to the kind of experiment: Automated whole-cell patch-clamp (QPatch 16X), hNaV1.7. The conditions noted are these: HEK293 cells expressing hNaV1.7 + β1 subunit; QPatch 16X; holding −80 mV, step to 0 mV; peptide incubated 2 min; 0.1% BSA; mean, SEM and n (3-9). As for the experimental part: as §1, §2, §3

T1 sequence (Q07699 19-218): as the sequence (Q07699 19-218, further chain) above
T1 sequence (Q99250 whole entry): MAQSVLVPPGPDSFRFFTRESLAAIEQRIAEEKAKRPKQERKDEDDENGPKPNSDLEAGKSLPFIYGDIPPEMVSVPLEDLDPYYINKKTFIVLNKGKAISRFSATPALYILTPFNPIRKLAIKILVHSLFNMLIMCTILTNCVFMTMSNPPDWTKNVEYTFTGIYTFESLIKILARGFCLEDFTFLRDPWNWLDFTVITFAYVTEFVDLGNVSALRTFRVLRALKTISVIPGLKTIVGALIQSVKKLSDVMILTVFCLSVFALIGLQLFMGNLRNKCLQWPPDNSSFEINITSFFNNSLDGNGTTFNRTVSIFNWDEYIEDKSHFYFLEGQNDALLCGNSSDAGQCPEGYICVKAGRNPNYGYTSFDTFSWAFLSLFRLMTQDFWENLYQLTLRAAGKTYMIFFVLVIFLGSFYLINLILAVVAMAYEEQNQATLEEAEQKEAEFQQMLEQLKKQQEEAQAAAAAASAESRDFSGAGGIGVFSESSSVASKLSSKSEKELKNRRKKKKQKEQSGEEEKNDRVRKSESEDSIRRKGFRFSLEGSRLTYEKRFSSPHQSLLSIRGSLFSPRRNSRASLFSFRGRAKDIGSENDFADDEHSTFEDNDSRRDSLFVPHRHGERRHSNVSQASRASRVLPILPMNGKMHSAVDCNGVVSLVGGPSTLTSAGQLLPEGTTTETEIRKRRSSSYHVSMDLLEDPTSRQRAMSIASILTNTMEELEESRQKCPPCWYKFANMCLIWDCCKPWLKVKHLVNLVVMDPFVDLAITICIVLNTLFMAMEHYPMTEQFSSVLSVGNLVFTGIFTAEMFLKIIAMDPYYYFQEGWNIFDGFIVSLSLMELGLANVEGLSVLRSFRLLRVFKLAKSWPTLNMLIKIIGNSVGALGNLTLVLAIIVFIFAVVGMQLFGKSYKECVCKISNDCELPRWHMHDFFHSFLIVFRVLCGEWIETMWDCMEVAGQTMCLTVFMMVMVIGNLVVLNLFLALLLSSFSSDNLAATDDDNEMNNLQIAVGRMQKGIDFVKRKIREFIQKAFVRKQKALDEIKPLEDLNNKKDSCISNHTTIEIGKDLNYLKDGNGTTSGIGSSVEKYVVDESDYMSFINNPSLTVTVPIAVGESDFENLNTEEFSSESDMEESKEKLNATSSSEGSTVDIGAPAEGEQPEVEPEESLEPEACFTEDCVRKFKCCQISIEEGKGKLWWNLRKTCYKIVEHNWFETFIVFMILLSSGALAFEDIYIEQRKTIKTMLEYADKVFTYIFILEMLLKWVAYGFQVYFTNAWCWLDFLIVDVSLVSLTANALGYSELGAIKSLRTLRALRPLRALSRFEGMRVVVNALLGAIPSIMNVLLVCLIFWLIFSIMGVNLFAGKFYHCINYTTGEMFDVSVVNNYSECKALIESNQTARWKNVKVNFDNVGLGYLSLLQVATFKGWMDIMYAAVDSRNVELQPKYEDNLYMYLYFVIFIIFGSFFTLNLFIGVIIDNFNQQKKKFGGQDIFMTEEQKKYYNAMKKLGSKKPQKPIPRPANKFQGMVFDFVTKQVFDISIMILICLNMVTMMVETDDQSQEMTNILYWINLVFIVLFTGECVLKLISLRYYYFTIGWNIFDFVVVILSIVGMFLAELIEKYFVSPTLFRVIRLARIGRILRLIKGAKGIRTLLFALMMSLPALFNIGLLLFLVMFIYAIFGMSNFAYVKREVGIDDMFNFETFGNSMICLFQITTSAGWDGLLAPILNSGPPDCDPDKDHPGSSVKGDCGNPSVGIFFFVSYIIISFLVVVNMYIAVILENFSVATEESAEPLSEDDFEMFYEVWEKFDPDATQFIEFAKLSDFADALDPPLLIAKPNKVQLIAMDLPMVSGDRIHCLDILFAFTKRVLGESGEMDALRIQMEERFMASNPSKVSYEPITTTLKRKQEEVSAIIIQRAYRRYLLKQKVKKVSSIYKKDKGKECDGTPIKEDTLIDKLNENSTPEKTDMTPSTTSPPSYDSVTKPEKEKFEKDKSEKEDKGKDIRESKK

Broadly, the IC50 is the midpoint of a concentration-inhibition curve. Consider `CC(C)C[C@H](NC(=O)[C@H](Cc1ccc(O)cc1)NC(=O)[C@H](Cc1ccc(O)cc1)NC(=O)[C@H](CCCNC(=N)N)NC(=O)[C@@H]1CSSC[C@@H]2NC(=O)[C@H](CCCCN)NC(=O)[C@H](CC(N)=O)NC(=O)[C@H](CC(N)=O)NC(=O)[C@H](CC(N)=O)NC(=O)[C@@H]3CCCN3C(=O)[C@H](CC(=O)O)NC(=O)[C@@H]3CSSC[C@H](NC(=O)[C@H](C(C)C)NC(=O)[C@H](Cc4ccc(O)cc4)NC(=O)CNC(=O)[C@H](CCC(=O)O)NC(=O)[C@H](CSSC[C@H](NC(=O)[C@H](CC(=O)O)NC(=O)CN)C(=O)N[C@@H](CC(C)C)C(=O)NCC(=O)N[C@@H](Cc4c[nH]c5ccccc45)C(=O)N[C@@H](Cc4ccccc4)C(=O)N[C@@H](CO)C(=O)NCC(=O)N3)NC2=O)C(=O)N[C@@H](Cc2c[nH]cn2)C(=O)N[C@@H](Cc2c[nH]c3ccccc23)C(=O)N[C@@H](CCCCN)C(=O)N[C@@H](Cc2ccc(O)cc2)C(=O)N2CCC[C@H]2C(=O)N[C@@H](Cc2c[nH]c3ccccc23)C(=O)N1)C(=O)O` [D32Y], for which the IC50 is 75 nM in experiment [1], 417 nM in experiment [2] and 110 nM in experiment [3]. In experiment [1] (ratio of potencies hNaV1.3 / hNaV1.2), the “hNaV1.2-selectivity against hNaV1.3” value is approximately 6 fold.
On to `CC(C)C[C@H](NC(=O)[C@H](CC(=O)O)NC(=O)[C@H](Cc1ccc(O)cc1)NC(=O)[C@H](CCCNC(=N)N)NC(=O)[C@@H]1CSSC[C@@H]2NC(=O)[C@H](CCCCN)NC(=O)[C@H](CC(N)=O)NC(=O)[C@H](CC(N)=O)NC(=O)[C@H](CC(N)=O)NC(=O)[C@@H]3CCCN3C(=O)[C@H](CC(=O)O)NC(=O)[C@@H]3CSSC[C@H](NC(=O)[C@H](C(C)C)NC(=O)[C@H](Cc4ccc(O)cc4)NC(=O)CNC(=O)[C@H](Cc4ccccc4)NC(=O)[C@H](CSSC[C@H](NC(=O)[C@H](CC(=O)O)NC(=O)CN)C(=O)N[C@@H](CC(C)C)C(=O)NCC(=O)N[C@@H](Cc4c[nH]c5ccccc45)C(=O)N[C@@H](Cc4ccccc4)C(=O)N[C@@H](CO)C(=O)NCC(=O)N3)NC2=O)C(=O)N[C@@H](Cc2c[nH]cn2)C(=O)N[C@@H](Cc2c[nH]c3ccccc23)C(=O)N[C@@H](CCCCN)C(=O)N[C@@H](Cc2ccc(O)cc2)C(=O)N2CCC[C@H]2C(=O)N[C@@H](Cc2c[nH]c3ccccc23)C(=O)N1)C(=O)O` [E18F], for which the IC50 in experiment [1] is 232 nM; in experiment [2], 395 nM; in experiment [3], 171 nM.
Turning to `CC(C)C[C@H](NC(=O)[C@H](CC(=O)O)NC(=O)[C@H](Cc1ccc(O)cc1)NC(=O)[C@H](CCCNC(=N)N)NC(=O)[C@@H]1CSSC[C@@H]2NC(=O)[C@H](CCCCN)NC(=O)[C@H](CC(N)=O)NC(=O)[C@H](CC(N)=O)NC(=O)[C@H](CC(N)=O)NC(=O)[C@@H]3CCCN3C(=O)[C@H](CC(=O)O)NC(=O)[C@@H]3CSSC[C@H](NC(=O)[C@H](C(C)C)NC(=O)[C@H](Cc4ccc(O)cc4)NC(=O)CNC(=O)CNC(=O)[C@H](CSSC[C@H](NC(=O)[C@H](CC(=O)O)NC(=O)CN)C(=O)N[C@@H](CC(C)C)C(=O)NCC(=O)N[C@@H](Cc4c[nH]c5ccccc45)C(=O)N[C@@H](Cc4ccccc4)C(=O)N[C@@H](CO)C(=O)NCC(=O)N3)NC2=O)C(=O)N[C@@H](Cc2c[nH]cn2)C(=O)N[C@@H](Cc2c[nH]c3ccccc23)C(=O)N[C@@H](CCCCN)C(=O)N[C@@H](Cc2ccc(O)cc2)C(=O)N2CCC[C@H]2C(=O)N[C@@H](Cc2c[nH]c3ccccc23)C(=O)N1)C(=O)O` [E18G], the half-maximal inhibitory concentration (IC50) in experiment [1] worked out at 119 nM; in experiment [2], 406 nM; in experiment [3], 276 nM.
For `CC(C)C[C@H](NC(=O)[C@H](CC(=O)O)NC(=O)[C@H](Cc1ccc(O)cc1)NC(=O)[C@H](CCCNC(=N)N)NC(=O)[C@@H]1CSSC[C@@H]2NC(=O)[C@H](CCCCN)NC(=O)[C@H](CC(N)=O)NC(=O)[C@H](CC(N)=O)NC(=O)[C@H](CC(N)=O)NC(=O)[C@@H]3CCCN3C(=O)[C@H](CC(=O)O)NC(=O)[C@@H]3CSSC[C@H](NC(=O)[C@H](C(C)C)NC(=O)[C@H](Cc4ccc(O)cc4)NC(=O)CNC(=O)[C@H](CCCCN)NC(=O)[C@H](CSSC[C@H](NC(=O)[C@H](CC(=O)O)NC(=O)CN)C(=O)N[C@@H](CC(C)C)C(=O)NCC(=O)N[C@@H](Cc4c[nH]c5ccccc45)C(=O)N[C@@H](Cc4ccccc4)C(=O)N[C@@H](CCCNC(=N)N)C(=O)NCC(=O)N3)NC2=O)C(=O)N[C@@H](Cc2c[nH]cn2)C(=O)N[C@@H](Cc2c[nH]c3ccccc23)C(=O)N[C@@H](CCCCN)C(=O)N[C@@H](Cc2ccc(O)cc2)C(=O)N2CCC[C@H]2C(=O)N[C@@H](Cc2c[nH]c3ccccc23)C(=O)N1)C(=O)O` [E18K/S7R] (H-GDCLGWFRGCDPNNNKCCKGYVCHWKYPWCRYDL-OH; disulfide 3-18, 10-23, 17-30), in that order: 40 nM, 59 nM and 40 nM.
The corresponding values for `CC(C)C[C@H](NC(=O)[C@H](CC(=O)O)NC(=O)[C@H](Cc1ccc(O)cc1)NC(=O)[C@H](CCCNC(=N)N)NC(=O)[C@@H]1CSSC[C@@H]2NC(=O)[C@H](CCCCN)NC(=O)[C@H](CC(N)=O)NC(=O)[C@H](CC(N)=O)NC(=O)[C@H](CC(N)=O)NC(=O)[C@@H]3CCCN3C(=O)[C@H](CC(=O)O)NC(=O)[C@@H]3CSSC[C@H](NC(=O)[C@H](C(C)C)NC(=O)[C@H](Cc4ccc(O)cc4)NC(=O)CNC(=O)[C@H](CCCCN)NC(=O)[C@H](CSSC[C@H](NC(=O)[C@H](CC(=O)O)NC(=O)CN)C(=O)N[C@@H](CC(C)C)C(=O)NCC(=O)N[C@@H](Cc4c[nH]c5ccccc45)C(=O)N[C@@H](Cc4ccccc4)C(=O)N[C@@H](CO)C(=O)NCC(=O)N3)NC2=O)C(=O)N[C@@H](Cc2c[nH]cn2)C(=O)N[C@@H](Cc2c[nH]c3ccccc23)C(=O)N[C@@H](CCCCN)C(=O)N[C@@H](Cc2ccc(O)cc2)C(=O)N2CCC[C@H]2C(=O)N[C@@H](Cc2c[nH]c3ccccc23)C(=O)N1)C(=O)O` [E18K] are 72 nM, 313 nM and 107 nM.
The corresponding values for `CC(C)C[C@H](NC(=O)[C@H](CC(=O)O)NC(=O)[C@H](Cc1ccc(O)cc1)NC(=O)[C@H](CCCNC(=N)N)NC(=O)[C@@H]1CSSC[C@@H]2NC(=O)[C@H](CCCCN)NC(=O)[C@H](CC(N)=O)NC(=O)[C@H](CC(N)=O)NC(=O)[C@H](CC(N)=O)NC(=O)[C@@H]3CCCN3C(=O)[C@H](CC(=O)O)NC(=O)[C@@H]3CSSC[C@H](NC(=O)[C@H](C(C)C)NC(=O)[C@H](Cc4ccc(O)cc4)NC(=O)CNC(=O)[C@H](Cc4ccc(O)cc4)NC(=O)[C@H](CSSC[C@H](NC(=O)[C@H](CC(=O)O)NC(=O)CN)C(=O)N[C@@H](CC(C)C)C(=O)NCC(=O)N[C@@H](Cc4c[nH]c5ccccc45)C(=O)N[C@@H](Cc4ccccc4)C(=O)N[C@@H](CO)C(=O)NCC(=O)N3)NC2=O)C(=O)N[C@@H](Cc2c[nH]cn2)C(=O)N[C@@H](Cc2c[nH]c3ccccc23)C(=O)N[C@@H](CCCCN)C(=O)N[C@@H](Cc2ccc(O)cc2)C(=O)N2CCC[C@H]2C(=O)N[C@@H](Cc2c[nH]c3ccccc23)C(=O)N1)C(=O)O` [E18Y] are 203 nM, 300 nM and 179 nM.
